Laboratory results taken from patent US20220143224A1, “MRI CONTRAST AGENT FOR USE IN THE DIAGNOSIS OF EARLY CHANGES IN THE ENDOTHELIUM OF BLOOD VESSELS” (UNIWERSYTET JAGIELLONSKI, priority 2019, published 2022).

Key:
[1] = system: brachiocephalic artery (BCA) in ApoE/LDLR−/− mice; assay: MRI-based endothelium-dependent response to acetylcholine in brachiocephalic artery; assay type: in vivo
Experimental: (§1) The experiments were performed using female ApoE/LDLR−/− mice of different ages: 4-, 6-, 8-, 12- and 28-week-old(19) in comparison to control young (8-week-old) mice (C57BL/6) without endothelial dysfunction. All mice (body weight 20-30 g) were housed under standard pathogen-free conditions (LD: 12/12, humidity: 60%, temperature: 23° C.).
(§2) MRI experiments were carried out using a 9.4 T scanner (BioSpec 94/20 USR, Bruker, Germany). During the experiment, mice were anesthetized using isoflurane (Aerrane, Baxter Sp. z o.o., Poland, 1.5% by volume) in an oxygen and air mixture (1:2). Cardiac activity, respiration rate and body temperature (maintained at 37° C., using circulating warm water) were monitored using Monitoring and Gating System (SA Inc., Stony Brook, N.Y., USA). Mice were imaged in the supine position to test endothelial function and permeability in various blood vessels.
(§3) Endothelium-dependent response to acetylcholine (Ach), expressed as changes in vessel volume, was assessed in the brachiocephalic artery (BCA) visible on the 3D image of the aortic arch (A) and in the abdominal aorta (AA) positioned on the sagittal view of the mouse (B). Assessment of vessel response to flow-mediated dilation (FMD), also expressed as changes in vessel volume, was performed in the femoral artery (FA), visible on the 3D image of the left hind limb (D). Pixels for which T1 had changed more than 50% after CA (Npx50) were marked in red on a representative cross-sectional image of blood vessels arising from the aortic arch (C).
(§4) To assess the sensitivity of endothelial dysfunction detection using the new contrast agent, being an invention, impaired endothelial function in ApoE/LDLR−/− mice was also assessed by other MRI-based techniques; detection of endothelium-dependent response to acetylcholine (FIG. 5) and measurement of increase in flow after short-term vessel occlusion (FMD, FIG. 6). […]

[2] = system: abdominal aorta (AA) in ApoE/LDLR−/− mice; assay: MRI-based endothelium-dependent response to acetylcholine in abdominal aorta; assay type: in vivo; details: for AA volume change: intraperitoneal Ach, 25 minutes after administration; for change in AA volume: paradoxical vasoconstriction
Experimental: as §1, §2, §3
as §4, with “6). As described in our recent publication(22), endothelium-dependent response to acetylcholine (Ach, FIG. 5B) in abdominal aorta (AA) is the most sensitive in vivo method to detect changes in endothelial phenotype.” for “6).”
Changes in the end-diastolic volume of brachiocephalic artery (A: BCA-ACH) and abdominal aorta (B: AA-ACH) 25 minutes after administration of acetylcholine in ApoE/LDLR−/− mice (white columns) of different ages: 4-week-old ApoE/LDLR−/− mice, 6-week-old ApoE/LDLR−/− mice, 8-week-old ApoE/LDLR−/− mice, 12-week-old ApoE/LDLR−/− mice, 28-week-old ApoE/LDLR−/− mice as compared to 8-week-old control C57BL/6 mice, (C57_8W, n=4, black columns). Statistics: one-way ANOVA followed by Tukey's post hoc test (normality was assessed using the Shapiro-Wilk test); *p<0.05, **p<0.01, ***p<0.001.

In the case of `CC(=O)OCC[N+](C)(C)C` [Ach, acetylcholine], the “changes in BCA volume” value ([1]; 4 to 8-week-old ApoE/LDLR−/− mice) is reported as “approximately 10%”, the “volume change in the BCA” value ([1]; 8-week-old control mice (C57BL/6)) is reported as 11.26% and the BCA volume changes ([1]; 12-week-old ApoE/LDLR−/− mice) is reported as “about 2%”. For the same molecule, the AA volume change ([2]; 4-week-old ApoE/LDLR−/− mice) was “about 23%”, the “change in AA volume” value ([2]; 12-week-old ApoE/LDLR−/− mice) was “about −8%” and the “change in AA volume” value ([2]; 28-week-old ApoE/LDLR−/− mice) was about −23%. The AA volume change ([2]; control mice (8-week-old C57BL/6)) was “about 34%”.
